In US20240327393A1 (SIRONAX LTD., priority 2021, published 2024) one finds EC50 data, which are given here for 26 compounds.

The first experiment deals with HT-1080 (ATCC, CCL-121) cells. The experiment can be described thus: HT-1080 cell viability assay with ferroptosis inducer RSL3 (Cell Titer-Glo). Type of experiment: cell-based. The settings on record: Homo sapiens; HT-1080 cells treated with RSL3; 3-fold, 10-point dilution, 1.1 μM highest concentration; Table 2; read-out: EC50 (nM), ferroptosis inhibitory activity. The essentials:
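EC50 was derived by sigmoidal dose-response regression of CellTiter-Glo luminescence viability, expressed relative to untreated wells. Compounds were tested in a ten-point, threefold dilution series (highest 1.1 μM) in the presence of the ferroptosis inducer RSL3. HT-1080 cells had been seeded at 6000 per well and grown overnight first.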
Background: Cellular ATP, detected with luciferase, serves as a proxy for viable cell number.
In the case of `CCCCCN(CC)c1ccc(Nc2ccc3c(c2)n(C)c(=O)n3C)cc1` [Compound 260, 5-((4-(ethyl(pentyl)amino)phenyl)amino)-1,3-dimethyl-1,3-dihydro-2H-benzo[d]imidazol-2-one], the concentration for a half-maximal effect (EC50) was 0.1 to 100 nM.
`CC1CCN(c2ccc(Nc3ccc4c(c3)c(C(=O)O)cn4C)cc2)CC1` [Compound 353, 1-methyl-5-((4-(4-methylpiperidin-1-yl)phenyl)amino)-1H-indole-3-carboxylic acid]: the EC50 lay within 0.1 to 100 nM.
Regarding `COCCN1C(=O)COc2cc(Nc3ccc(N4CCC(C(F)(F)F)CC4)cc3)ccc21` [Compound 11, 4-(2-methoxyethyl)-7-((4-(4-(trifluoromethyl)piperidin-1-yl)phenyl)amino)-2H-benzo[b][1,4]oxazin-3(4H)-one], the EC50 fell in the range of 0.1 to 100 nM.
Still for that read-out and setting: the same measure for `COc1cc(N2CCC(C(F)(F)F)CC2)ccc1Nc1ccc2c(c1)n(C)c(=O)n2C` [Compound 375, 5-((2-methoxy-4-(4-(trifluoromethyl)piperidin-1-yl)phenyl)amino)-1,3-dimethyl-1,3-dihydro-2H-benzo[d]imidazol-2-one]: 0.1 to 100 nM.
On the same count and under the same terms, for `CN(C)c1cccc(Nc2ccc3c(c2)n(C)c(=O)n3C)c1` [Compound 308, 5-((3-(dimethylamino)phenyl)amino)-1,3-dimethyl-1,3-dihydro-2H-benzo[d]imidazol-2-one] the value was 0.1 to 100 nM.
The same measure, in the same setting: the same measure for `CN1C(=O)COc2cc(Nc3ccc(N4CCC(C(F)(F)F)CC4)cc3)cnc21` [Compound 75, 4-methyl-7-((4-(4-(trifluoromethyl)piperidin-1-yl)phenyl)amino)-2H-pyrido[3,2-b][1,4]oxazin-3(4H)-one]: 0.1 to 100 nM; for `CC(C)(C)C(=O)N1CCOc2cc(Nc3ccc(N4CCC(C(F)(F)F)CC4)cc3)ccc21` [Compound 18, 2,2-dimethyl-1-(7-((4-(4-(trifluoromethyl)piperidin-1-yl)phenyl)amino)-2,3-dihydro-4H-benzo[b][1,4]oxazin-4-yl)propan-1-one]: 0.1 to 100 nM; for `CN1C(=O)COc2cc(Nc3ccc(OCCCF)cc3)ccc21` [Compound 13, 7-((4-(3-fluoropropoxy)phenyl)amino)-4-methyl-2H-benzo[b][1,4]oxazin-3(4H)-one]: 0.1 to 100 nM.
`Cc1cc(Nc2ccc3c(c2)OCC(=O)N3C)cc(C)c1N1CCC(C(F)(F)F)CC1` [Compound 155, 7-((3,5-dimethyl-4-(4-(trifluoromethyl)piperidin-1-yl)phenyl)amino)-4-methyl-2H-benzo[b][1,4]oxazin-3(4H)-one]: the EC50 was in the range of 0.1 to 100 nM.
Still for that read-out and setting: for `Cn1c(=O)cnc2cc(Nc3ccc(N4CCC(C(F)(F)F)CC4)cc3)ccc21` [Compound 111, 1-methyl-6-((4-(4-(trifluoromethyl)piperidin-1-yl)phenyl)amino) quinoxalin-2(1H)-one] the value was 0.1 to 100 nM.
Same read-out and setting: the same measure for `Cc1nc(=O)n(C)c2ccc(Nc3ccc(N4CCC(C(F)(F)F)CC4)cc3)cc12` [Compound 113, 1,4-dimethyl-6-((4-(4-(trifluoromethyl)piperidin-1-yl)phenyl)amino) quinazolin-2(1H)-one]: 0.1 to 100 nM.
Still for that read-out and setting: for `Cc1c(Nc2ccc3c(c2)n(C)c(=O)n3C)ccc(N2CCC(C)CC2)c1F` [Compound 275, 5-((3-fluoro-2-methyl-4-(4-methylpiperidin-1-yl)phenyl)amino)-1,3-dimethyl-1,3-dihydro-2H-benzo[d]imidazol-2-one] the value was 0.1 to 100 nM.
For the compound `Cn1c(=O)n(C)c2cc(Nc3ccc4nccn4c3)ccc21` [Compound 310, 5-(imidazo[1,2-a]pyridin-6-ylamino)-1,3-dimethyl-1,3-dihydro-2H-benzo[d]imidazol-2-one], the EC50 was 0.1 to 100 nM.

Staying with this experiment, now noted: Homo sapiens; HT-1080 cells treated with RSL3; 3-fold, 10-point dilution, 1.1 μM highest concentration; Table 3; read-out: EC50 (nM), ferroptosis inhibitory activity.
With `COc1cc(N2CCC(C(F)(F)F)CC2)ccc1Nc1ccc2c(c1)OCC(=O)N2` [Compound 516, 7-((2-methoxy-4-(4-(trifluoromethyl)piperidin-1-yl)phenyl)amino)-2H-benzo[b][1,4]oxazin-3(4H)-one], the EC50 is 0.1 to 100 nM.
On the same count and under the same terms, the same measure for `Cc1cc(NC(C)(C)C)ccc1Nc1ccc2c(c1)OCC(=O)N2` [Compound 634, 7-((4-(tert-butylamino)-2-methylphenyl)amino)-2H-benzo[b][1,4]oxazin-3(4H)-one]: 0.1 to 100 nM; for `Cc1cc(N2CCC(C(F)(F)F)CC2)ccc1Nc1ccn2nccc2c1` [Compound 612, N-(2-methyl-4-(4-(trifluoromethyl)piperidin-1-yl)phenyl) pyrazolo[1,5-a]pyridin-5-amine]: 0.1 to 100 nM.
Regarding `Cc1cc(N2CCC(C(F)(F)F)CC2)ccc1Nc1cc(F)c2c(c1)OCC(=O)N2` [Compound 480, 5-fluoro-7-((2-methyl-4-(4-(trifluoromethyl)piperidin-1-yl)phenyl)amino)-2H-benzo[b][1,4]oxazin-3(4H)-one], the EC50 was in the range of 0.1 to 100 nM.
On the same count and under the same terms, the same measure for `Cc1cc(N2CCC(C)C2)ccc1Nc1ccc2c(c1)OCC(=O)N2` (centres unmarked) [Compound 604, 7-((2-methyl-4-(3-methylpyrrolidin-1-yl)phenyl)amino)-2H-benzo[b][1,4]oxazin-3(4H)-one]: 0.1 to 100 nM; for `COC1(C(F)(F)F)CN(c2ccc(Nc3ccc4c(c3)OCCC(=O)N4)c(C)c2)C1` [Compound 645, 8-[4-[3-methoxy-3-(trifluoromethyl)azetidin-1-yl]-2-methyl-anilino]-3,5-dihydro-2H-1,5-benzoxazepin-4-one]: 0.1 to 100 nM; for `Cc1cc(N2CC(C)(F)C2)ccc1Nc1ccc2c(c1)OCC(=O)N2` [Compound 595, 7-((4-(3-fluoro-3-methylazetidin-1-yl)-2-methylphenyl)amino)-2H-benzo[b][1,4]oxazin-3(4H)-one]: 0.1 to 100 nM.
The same measure, in the same setting: the same measure for `CC1CC(c2ccc(Nc3ccc4c(c3)OCC(=O)N4)cc2)CCO1` (centres unmarked) [Compound 479, 7-((4-(2-methyltetrahydro-2H-pyran-4-yl)phenyl)amino)-2H-benzo[b][1,4]oxazin-3(4H)-one]: 0.1 to 100 nM.
Still for that read-out and setting: the same measure for `O=C1COc2cc(Nc3ccc(N4CCC(O)(C(F)(F)F)CC4)cc3)ccc2N1` [Compound 510, 7-((4-(4-hydroxy-4-(trifluoromethyl)piperidin-1-yl)phenyl)amino)-2H-benzo[b][1,4]oxazin-3(4H)-one]: 0.1 to 100 nM; for `Cc1cc(N2CC(O)(C(F)(F)F)C2)ccc1Nc1ccc2c(c1)ncn2C` [Compound 651, 1-[3-methyl-4-[(1-methylbenzimidazol-5-yl)amino]phenyl]-3-(trifluoromethyl)azetidin-3-ol]: 0.1 to 100 nM; for `Cc1cc(N2CCC(C(F)(F)F)CC2)ccc1Nc1ccc2c(c1)CN(C)C(=O)N2` [Compound 566, 3-methyl-6-({2-methyl-4-[4-(trifluoromethyl)piperidin-1-yl]phenyl}amino)-1,4-dihydroquinazolin-2-one]: 0.1 to 100 nM.
With `COCCn1c(=O)n(C)c2ccc(Nc3ccc(N4CCC(C(F)(F)F)C4)cc3C)cc21` (centres unmarked) [Compound 620, 3-(2-methoxyethyl)-1-methyl-5-((2-methyl-4-(3-(trifluoromethyl)pyrrolidin-1-yl)phenyl)amino)-1,3-dihydro-2H-benzo[d]imidazol-2-one], the concentration giving a half-maximal response (EC50) was in the range of 0.1 to 100 nM.
The same measure, in the same setting: the same measure for `Cc1nc(N2CCN(CC(F)(F)F)CC2)ccc1Nc1ccc2c(c1)OCC(=O)N2` [Compound 521, 7-((2-methyl-6-(4-(2,2,2-trifluoroethyl)piperazin-1-yl)pyridin-3-yl)amino)-2H-benzo[b][1,4]oxazin-3(4H)-one]: 0.1 to 100 nM.

A word on the EC50: it is the concentration needed to bring the measured effect to its halfway point.
